Assay results published in patent publication US8288554B2, “Pyridin-3-yl derivatives as immunomodulating agents” (Actelion Pharmaceuticals Ltd., priority 2006, dated 2012).

Legend:
[1] = molecular target: recombinant human S1P1 receptor (Homo sapiens, UniProt P21453); test: GTPγS assay to determine EC50 values; assay type: biochemical; settings: agonist-induced 35S-GTPγS binding, membranes of CHO cells expressing recombinant human S1P1 receptor
Protocol: GTPγS binding assays are performed in 96 well microtiter plates (Nunc, 442587) in a final volume of 200 μl, using membrane preparations of CHO cells expressing recombinant human S1P1 receptor. Assay conditions are 20 mM Hepes (Fluka, 54461), 100 mM NaCl (Fluka, 71378), 5 mM MgCl2 (Fluka, 63064), 0.1% BSA (Calbiochem, 126609), 1 μM GDP (Sigma, G-7127), 2.5% DMSO (Fluka, 41644), […] ^35S-GTPγS (Amersham Biosciences, SJ1320). The pH is 7.4. Test compounds are dissolved and diluted in 100% DMSO and pre-incubated at room temperature for 30 min in 150 μl of the above assay buffer, in the absence of ^35S-GTPγS. After addition of 50 μl of ^35S-GTPγS, the assay is incubated for 1 h at rt. The assay is terminated by transfer of the reaction mixture to a Multiscreen plate (Millipore, MAHFC1H60) using a cell harvester from Packard Biosciences, and the plates are washed with ice-cold 10 mM Na2HPO4/NaH2PO4 (70%/30%), dried, sealed at the bottom and, after addition of 25 μl MicroScint20 (Packard Biosciences, order#6013621), sealed on the top. Membrane-bound ^35S-GTPγS is measured with a TopCount from Packard Biosciences.
EC50 is the concentration of agonist inducing 50% of the maximal specific ^35S-GTPγS binding. Specific binding is determined by subtracting non-specific binding from maximal binding. Maximal binding is the amount of cpm bound to the Multiscreen plate in the presence of 10 μM of S1P. Non-specific binding is the amount of binding in the absence of an agonist in the assay.

[2] = test system: circulating lymphocytes; test: Assessment of in vivo efficacy: circulating lymphocytes after oral administration; parameters: species or system rat; settings: 6 h after oral administration of 10 mg/kg, normotensive male Wistar rats, compared to vehicle group
Protocol: The efficacy of the compounds of Formula (I) is assessed by measuring the circulating lymphocytes after oral administration of 3 to 30 mg/kg of a compound of Formula (I) to normotensive male Wistar rats. The animals are housed in climate-controlled conditions with a 12 h-light/dark cycle, and have free access to normal rat chow and drinking water. Blood is collected before and 3, 6 and 24 h after drug administration. Full blood is subjected to hematology using Advia Hematology system (Bayer Diagnostics, Zurich, Switzerland).
All data are presented as mean±SEM. Statistical analyses are performed by analysis of variance (ANOVA) using Statistica (StatSoft) and the Student-Newman-Keuls procedure for multiple comparisons. The null hypothesis is rejected when p<0.05.
Lymphocyte counts 6 h after oral administration have been measured for 6 exemplified compounds and are in the range of −77% to −61% with an average of −68%.

Sequence of recombinant human S1P1 receptor (P21453 whole entry): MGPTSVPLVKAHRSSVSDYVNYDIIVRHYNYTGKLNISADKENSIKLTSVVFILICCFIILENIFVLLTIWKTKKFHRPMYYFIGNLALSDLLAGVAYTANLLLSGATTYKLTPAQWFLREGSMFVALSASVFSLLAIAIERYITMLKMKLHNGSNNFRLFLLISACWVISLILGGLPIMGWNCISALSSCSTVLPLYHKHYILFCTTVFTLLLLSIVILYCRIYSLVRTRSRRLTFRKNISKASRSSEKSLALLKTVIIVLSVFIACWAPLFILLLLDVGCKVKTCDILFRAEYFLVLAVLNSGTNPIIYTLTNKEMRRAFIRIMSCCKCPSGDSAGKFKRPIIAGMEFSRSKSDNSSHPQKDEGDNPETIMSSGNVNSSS

Structure (SMILES) | EC50 [1] [nM] | Lymphocyte counts [2] [%]
CCc1cc(-c2noc(-c3cnc(OC(C)C)c(C)c3)n2)cc(C)c1CCC(=O)NCCO [Example 89, 3-{2-Ethyl-4-[5-(6-isopropoxy-5-methyl-pyridin-3-yl)-[1,2,4]oxadiazol-3-yl]-6-methyl-phenyl}-N-(2-hydroxy-ethyl)-propionamide] | 3.5 | –
Cc1cc(-c2noc(-c3cnc(OC(C)C)c(Cl)c3)n2)cc(C)c1OCC(O)CNC(=O)CO (racemic) [Example 3, N—((RS)-3-{4-[5-(5-chloro-6-isopropoxy-pyridin-3-yl)-[1,2,4]oxadiazol-3-yl]-2,6-dimethyl-phenoxy}-2-hydroxy-propyl)-2-hydroxy-acetamide] | – | −71
CCc1cc(-c2noc(-c3cnc(CC(C)C)c(C)c3)n2)cc(C)c1OCC(O)CNC(=O)CO (racemic) [Example 8, N—((RS)-3-{2-Ethyl-4-[5-(6-isobutyl-5-methyl-pyridin-3-yl)-[1,2,4]oxadiazol-3-yl]-6-methyl-phenoxy}-2-hydroxy-propyl)-2-hydroxy-acetamide] | – | −61
Cc1cc(-c2nc(-c3cc(C)c(OCC(O)CNC(=O)CO)c(C)c3)no2)cnc1CC(C)C (racemic) [Example 5, 2-Hydroxy-N—((RS)-2-hydroxy-3-{4-[5-(6-isobutyl-5-methyl-pyridin-3-yl)-[1,2,4]oxadiazol-3-yl]-2,6-dimethyl-phenoxy}-propyl)-acetamide] | 2.7 | –
Cc1cc(-c2nc(-c3cc(C)c(OCC(O)CNC(=O)CO)c(Cl)c3)no2)cnc1CC(C)C (stereo not shown) [Example 42] | 0.6 | –
COc1cc(-c2noc(-c3cnc(CC(C)C)c(C)c3)n2)cc(Cl)c1OCC(O)CNC(=O)CO (stereo not shown) [Example 43] | 4 | –
Cc1cc(-c2noc(-c3cnc(CC(C)C)c(CC(C)C)c3)n2)cc(C)c1OCC(O)CO (racemic) [Example 12, (RS)-3-{4-[5-(5,6-Diisobutyl-pyridin-3-yl)-[1,2,4]oxadiazol-3-yl]-2,6-dimethyl-phenoxy}-propane-1,2-diol] | – | −61
CCc1cc(-c2nc(-c3cnc(OC(C)C)c(C)c3)no2)cc(C)c1OC[C@@H](O)CO [Example 92] | 5.1 | –
Cc1cc(-c2noc(-c3cnc(OC(C)C)c(Cl)c3)n2)cc(C)c1OCC(O)CO (racemic) [Example 1, (RS)-3-{4-[5-(5-chloro-6-isopropoxy-pyridin-3-yl)-[1,2,4]oxadiazol-3-yl]-2,6-dimethyl-phenoxy}-propane-1,2-diol] | 0.6 | –
CCc1cc(-c2noc(-c3cnc(OC(C)C)c(C)c3)n2)cc(C)c1OC[C@@H](O)CNC(=O)CO [Example 88] | 0.1 | –
